Measured values from patent publication US10640487B2, “Solid state forms of Nilotinib salts” (Teva Pharmaceuticals USA, Inc., priority 2016, dated 2020).

Key:
[1] = Long term and accelerated storage stability of the solid state form; format: physicochemical
[2] = Thermodynamic stability (resistance to polymorphic conversion) compared with forms I and II of WO'222; format: physicochemical; conditions: compared to forms I and II of Nilotinib fumarate described in WO'222
Description: As used herein, and unless indicated otherwise, the term “thermo-dynamical stability” in relation to solid state forms of the present disclosure refers to resistance of the solid state form to polymorphic conversion under certain conditions, for example, heating, melting or dissolving. […] In some embodiments, the conversion is about 1% (w/w) to about 20% (w/w), about 1% (w/w) to about 10% (w/w) or about 1% (w/w) to about 5% (w/w).

## Nilotinib fumarate [Form III of Nilotinib fumarate]
[1]; accelerated stability conditions at 25° C./60% RH with desiccant
  chemical and polymorphic stability: chemically and polymorphically stable
[1]; long term stability conditions at 5° C.
  chemical and polymorphic stability: chemically and polymorphically stable
[2]
  thermodynamic stability: thermodynamically more stable
